row,Compound,melting point
1,"CN1CCN(C(=O)c2ccc3cc(-c4csc(N(C)S(=O)(=O)c5ccccc5)n4)c(=O)[nH]c3c2)CC1 [Example 8765, N-Methyl-N-{4-[7-(4-methyl-piperazine-1-carbonyl)-2-oxo-1,2-dihydro-quinolin-3-yl]-thiazol-2-yl}-benzenesulfonamide]",242 to 247 °C
2,"CCNC(=O)c1ccc2cc(-c3csc(N(C)S(=O)(=O)c4ccccc4)n3)c(=O)[nH]c2c1 [Example 8766, 3-[2-(Benzenesulfonyl-methyl-amino)-thiazol-4-yl]-2-oxo-1,2-dihydro-quinoline-7-carboxylic acid ethylamide]",> 300 °C
3,"CCN(CC)C(=O)c1ccc2cc(-c3csc(N(C)S(=O)(=O)c4ccccc4)n3)c(=O)[nH]c2c1 [Example 8767, N,N-Diethyl-3-(2-(methyl(phenylsulfonyl)amino)-1,3-thiazol-4-yl)-2-oxo-1,2-dihydro-7-quinolinecarboxamide]",200 to 202 °C
4,"CN(C)CCN(C)C(=O)c1ccc2cc(-c3csc(N(C)S(=O)(=O)c4ccccc4)n3)c(=O)[nH]c2c1 [Example 8788, 3-[2-(Benzenesulfonyl-methyl-amino)-thiazol-4-yl]-2-oxo-1,2-dihydro-quinoline-7-carboxylic acid (2-dimethylamino-ethyl)-methyl-amide]",144 to 148 °C
5,"O=c1[nH]c2ccccc2cc1-c1csc(NS(=O)(=O)c2ccc(Cl)cc2)n1 [Example 8789, 4-Chloro-N-(4-(2-oxo-1,2-dihydro-3-quinolinyl)-1,3-thiazol-2-yl)benzenesulfonamide]",> 300 °C
